According to paper PMC4585259 (Frontiers in Pharmacology, 2015):
pKd: −log10 of the molar value. Where two headings read alike, the source gives them in different places.

Molecular target: T1, rNav1.2 sodium channels (Rattus norvegicus, UniProt P04775)
T1 construct: host or cells: HEK-293
Assay: QPatch automated patch clamp, inhibition of sodium currents evoked by 5 Hz trains at three extracellular pH values
Format: cell-based
Conditions: for class of pH-dependence pattern (cluster analysis): Ward's method on 18 variables of affinity, reversibility, onset; for τoffset / τonset: concentration (lidocaine 300 μM, memantine 30 μM); for inhibition: 100 μM
Procedure, shortened: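 Trains of 5 steps from −90 to −10 mV every 20 s. Apparent affinity, onset/offset time constants (single-exponential fits) and reversibility (w−i)/(c−i) were derived from single-concentration data.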

[1] = pH 6.0, single concentration (lidocaine 300 μM, memantine 30 μM), geometric mean of 5, read-out: apparent affinity
[2] = pH 7.3, single concentration (lidocaine 300 μM, memantine 30 μM), geometric mean of 5, read-out: apparent affinity
[3] = pH 8.6, single concentration (lidocaine 300 μM, memantine 30 μM), geometric mean of 5, read-out: apparent affinity
[4] = pH=6.0, cc 100 mM, read-out: Apparent Affinity
[5] = pH=7.3, cc 100 mM, read-out: Apparent Affinity
[6] = pH=8.6, cc 100 mM, read-out: Apparent Affinity

T1 sequence (P04775 whole entry): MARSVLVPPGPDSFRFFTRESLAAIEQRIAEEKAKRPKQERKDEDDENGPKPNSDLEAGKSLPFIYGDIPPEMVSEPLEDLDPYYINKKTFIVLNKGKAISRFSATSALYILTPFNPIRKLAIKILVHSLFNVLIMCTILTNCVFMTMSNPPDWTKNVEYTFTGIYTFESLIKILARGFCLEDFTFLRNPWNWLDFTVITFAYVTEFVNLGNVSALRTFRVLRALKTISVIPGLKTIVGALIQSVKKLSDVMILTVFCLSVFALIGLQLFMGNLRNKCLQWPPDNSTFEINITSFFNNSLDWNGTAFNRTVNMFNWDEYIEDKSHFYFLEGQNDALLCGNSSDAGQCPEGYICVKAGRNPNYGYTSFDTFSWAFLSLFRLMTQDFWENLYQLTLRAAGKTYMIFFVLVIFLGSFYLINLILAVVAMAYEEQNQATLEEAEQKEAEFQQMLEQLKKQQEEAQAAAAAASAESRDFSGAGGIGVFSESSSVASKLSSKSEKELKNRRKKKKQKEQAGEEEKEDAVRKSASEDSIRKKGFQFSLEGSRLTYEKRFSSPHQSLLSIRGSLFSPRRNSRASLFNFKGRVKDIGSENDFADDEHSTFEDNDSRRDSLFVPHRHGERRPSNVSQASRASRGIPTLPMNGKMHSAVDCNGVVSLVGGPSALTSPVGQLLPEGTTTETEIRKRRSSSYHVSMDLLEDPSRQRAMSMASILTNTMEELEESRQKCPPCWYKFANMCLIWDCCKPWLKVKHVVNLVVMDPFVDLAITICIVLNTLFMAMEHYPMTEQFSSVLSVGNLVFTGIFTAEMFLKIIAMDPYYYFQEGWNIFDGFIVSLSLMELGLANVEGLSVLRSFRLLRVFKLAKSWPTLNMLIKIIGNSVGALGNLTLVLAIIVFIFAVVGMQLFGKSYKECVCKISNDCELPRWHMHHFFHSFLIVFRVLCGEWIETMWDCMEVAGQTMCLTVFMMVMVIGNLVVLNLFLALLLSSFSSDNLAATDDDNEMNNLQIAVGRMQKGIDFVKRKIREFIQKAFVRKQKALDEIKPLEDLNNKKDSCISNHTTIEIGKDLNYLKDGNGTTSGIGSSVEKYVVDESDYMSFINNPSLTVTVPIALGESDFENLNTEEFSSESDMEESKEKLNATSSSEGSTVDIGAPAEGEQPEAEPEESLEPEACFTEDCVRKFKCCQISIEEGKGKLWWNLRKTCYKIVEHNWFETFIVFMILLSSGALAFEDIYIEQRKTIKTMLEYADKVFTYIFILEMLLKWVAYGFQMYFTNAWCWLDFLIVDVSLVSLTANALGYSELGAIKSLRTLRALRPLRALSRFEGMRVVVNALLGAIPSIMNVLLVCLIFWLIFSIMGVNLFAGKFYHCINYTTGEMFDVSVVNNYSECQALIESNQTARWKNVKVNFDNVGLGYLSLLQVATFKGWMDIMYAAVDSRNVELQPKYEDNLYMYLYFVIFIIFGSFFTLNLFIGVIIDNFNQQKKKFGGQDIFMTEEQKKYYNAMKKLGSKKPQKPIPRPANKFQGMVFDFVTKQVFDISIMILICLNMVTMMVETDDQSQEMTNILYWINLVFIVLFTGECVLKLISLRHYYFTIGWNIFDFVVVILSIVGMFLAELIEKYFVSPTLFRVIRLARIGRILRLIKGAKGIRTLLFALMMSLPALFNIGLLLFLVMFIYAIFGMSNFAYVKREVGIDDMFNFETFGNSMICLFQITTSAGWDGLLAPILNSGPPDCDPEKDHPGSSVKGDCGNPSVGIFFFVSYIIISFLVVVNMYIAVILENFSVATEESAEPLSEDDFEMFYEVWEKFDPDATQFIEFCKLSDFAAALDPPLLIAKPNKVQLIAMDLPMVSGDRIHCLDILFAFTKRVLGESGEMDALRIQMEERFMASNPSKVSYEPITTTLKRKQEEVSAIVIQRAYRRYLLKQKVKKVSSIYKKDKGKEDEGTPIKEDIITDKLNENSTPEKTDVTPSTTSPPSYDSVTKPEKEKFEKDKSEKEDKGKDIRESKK

SMILES: Cc1nc2sccn2c(=O)c1CCN1CCC(=C(c2ccc(F)cc2)c2ccc(F)cc2)CC1 [ritanserin]
- fold more potent at neutral pH than at pH = 6.0 (30 μM): 3.5 fold
- fold more potent at neutral pH than at pH = 8.6 (30 μM): 5.9 fold
- class of pH-dependence pattern (cluster analysis): Class E
- effect of alkalic pH on onset/offset kinetics (in words): decelerated onset
- alkalization-induced recovery (neutral-to-alkalic solution exchange, in words): prominent alkalization-induced recovery
- reversibility at all three pH values (pH 6.0, 7.3 and 8.6): below 0.6
- Ratio Reversibility (pH 6.0/7.3, cc 30 mM): 0.981
- Ratio Tau Offset (pH 6.0/7.3, cc 30 mM): 0.863
- Ratio Tau Onset (pH 6.0/7.3, cc 30 mM): 0.656
- log Ratio App Aff (pH 6.0/7.3, cc 30 mM): 0.541
- Ratio Reversibility (pH 6.0/8.6, cc 30 mM): 4.330
- Ratio Tau Offset (pH 6.0/8.6, cc 30 mM): 0.456
- Ratio Tau Onset (pH 6.0/8.6, cc 30 mM): 0.393
- log Ratio App Aff (pH 6.0/8.6, cc 30 mM): -0.230
- τoffset (pH 6.0): 17.60 s
- τonset (pH 6.0): 11.80 s
- pKd [1]: 4.51
- Ratio Reversibility (pH 7.3/8.6, cc 30 mM): 4.412
- Ratio Tau Offset (pH 7.3/8.6, cc 30 mM): 0.528
- Ratio Tau Onset (pH 7.3/8.6, cc 30 mM): 0.600
- log Ratio App Aff (pH 7.3/8.6, cc 30 mM): -0.772
- τoffset (pH 7.3): 20.40 s
- τonset (pH 7.3): 18.00 s
- pKd [2]: 5.05
- τoffset (pH 8.6): 38.60 s
- τonset (pH 8.6): 30.00 s
- pKd [3]: 4.28
- Reversibility (pH=6.0, cc 30 mM): 0.36
- pKd (pH=6.0, cc 30 mM, read-out: Apparent Affinity): 4.51
- Reversibility (pH=7.3, cc 30 mM): 0.37
- pKd (pH=7.3, cc 30 mM, read-out: Apparent Affinity): 5.05
- Reversibility (pH=8.6, cc 30 mM): 0.08
- pKd (pH=8.6, cc 30 mM, read-out: Apparent Affinity): 4.28

SMILES: C[Si](C)(Cc1ccc(F)cc1)CN1CCCCC1 [silperisone]
- inhibition (pH 6.0): 23%
- inhibition (pH 7.3): 42%
- inhibition (pH 8.6): 79%
- class of pH-dependence pattern (cluster analysis): Class F
- Ratio Reversibility (pH 6.0/7.3, cc 100 mM): 0.877
- Ratio Tau Offset (pH 6.0/7.3, cc 100 mM): 1.240
- Ratio Tau Onset (pH 6.0/7.3, cc 100 mM): 0.900
- log Ratio App Aff (pH 6.0/7.3, cc 100 mM): 0.387
- Ratio Reversibility (pH 6.0/8.6, cc 100 mM): 1.714
- Ratio Tau Offset (pH 6.0/8.6, cc 100 mM): 0.894
- Ratio Tau Onset (pH 6.0/8.6, cc 100 mM): 1.154
- log Ratio App Aff (pH 6.0/8.6, cc 100 mM): 1.096
- τoffset (pH 6.0): 18.60 s
- τonset (pH 6.0): 9.00 s
- pKd [1]: 3.48
- Ratio Reversibility (pH 7.3/8.6, cc 100 mM): 1.955
- Ratio Tau Offset (pH 7.3/8.6, cc 100 mM): 0.721
- Ratio Tau Onset (pH 7.3/8.6, cc 100 mM): 1.282
- log Ratio App Aff (pH 7.3/8.6, cc 100 mM): 0.709
- τoffset (pH 7.3): 15.00 s
- τonset (pH 7.3): 10.00 s
- pKd [2]: 3.86
- τoffset (pH 8.6): 20.80 s
- τonset (pH 8.6): 7.80 s
- pKd [3]: 4.57
- Reversibility (pH=6.0, cc 100 mM): 0.80
- pKd [4]: 3.48
- Reversibility (pH=7.3, cc 100 mM): 0.92
- pKd [5]: 3.86
- Reversibility (pH=8.6, cc 100 mM): 0.47
- pKd [6]: 4.57

SMILES: Cc1ccc(C(=O)C(C)CN2CCCCC2)cc1 (centres unmarked) [tolperisone]
- decrease of recovery at pH = 8.6 as compared to pH = 7.3: 1.35 fold
- class of pH-dependence pattern (cluster analysis): Class F
- Ratio Reversibility (pH 6.0/7.3, cc 100 mM): 0.699
- Ratio Tau Offset (pH 6.0/7.3, cc 100 mM): 1.256
- Ratio Tau Onset (pH 6.0/7.3, cc 100 mM): 1.028
- log Ratio App Aff (pH 6.0/7.3, cc 100 mM): 0.132
- Ratio Reversibility (pH 6.0/8.6, cc 100 mM): 0.944
- Ratio Tau Offset (pH 6.0/8.6, cc 100 mM): 1.286
- Ratio Tau Onset (pH 6.0/8.6, cc 100 mM): 1.423
- log Ratio App Aff (pH 6.0/8.6, cc 100 mM): 0.542
- τoffset (pH 6.0): 16.20 s
- τonset (pH 6.0): 7.40 s
- pKd [1]: 3.43
- Ratio Reversibility (pH 7.3/8.6, cc 100 mM): 1.349
- Ratio Tau Offset (pH 7.3/8.6, cc 100 mM): 1.024
- Ratio Tau Onset (pH 7.3/8.6, cc 100 mM): 1.385
- log Ratio App Aff (pH 7.3/8.6, cc 100 mM): 0.410
- τoffset (pH 7.3): 12.90 s
- τonset (pH 7.3): 7.20 s
- pKd [2]: 3.56
- τoffset (pH 8.6): 12.60 s
- τonset (pH 8.6): 5.20 s
- pKd [3]: 3.97
- KD app, effect of acidic medium (pH = 6.0 vs neutral, increased KD app = decreased apparent affinity): MEM,MEX,TOL↑
- Reversibility (pH=6.0, cc 100 mM): 0.65
- pKd [4]: 3.43
- Reversibility (pH=7.3, cc 100 mM): 0.93
- pKd [5]: 3.56
- Reversibility (pH=8.6, cc 100 mM): 0.69
- pKd [6]: 3.97

SMILES: COc1ccc(C(CN(C)C)C2(O)CCCCC2)cc1 (centres unmarked) [venlafaxine]
- pKd (Apparent Affinity, pH=6.0, cc 100 mM): 3.09
- pKd (Apparent Affinity, pH=7.3, cc 100 mM): 3.27
- pKd (Apparent Affinity, pH=8.6, cc 100 mM): 3.76
- class of pH-dependence pattern (cluster analysis): Class D
- pKd (apparent affinity, pH 6.0, single concentration (lidocaine 300 μM, memantine 30 μM), geometric mean of 5): 3.09
- pKd (apparent affinity, pH 7.3, single concentration (lidocaine 300 μM, memantine 30 μM), geometric mean of 5): 3.27
- pKd (apparent affinity, pH 8.6, single concentration (lidocaine 300 μM, memantine 30 μM), geometric mean of 5): 3.76
- inhibition at 100 µM (pH 6): < 25%
- Ratio Reversibility (pH 6.0/7.3, cc 100 mM): 0.250
- Ratio Tau Offset (pH 6.0/7.3, cc 100 mM): 1.446
- Ratio Tau Onset (pH 6.0/7.3, cc 100 mM): 1.639
- log Ratio App Aff (pH 6.0/7.3, cc 100 mM): 0.177
- Ratio Reversibility (pH 6.0/8.6, cc 100 mM): 0.250
- Ratio Tau Offset (pH 6.0/8.6, cc 100 mM): 1.330
- Ratio Tau Onset (pH 6.0/8.6, cc 100 mM): 1.405
- log Ratio App Aff (pH 6.0/8.6, cc 100 mM): 0.669
- τoffset (pH 6.0): 13.30 s
- τonset (pH 6.0): 11.80 s
- inhibition at 100 µM (pH 7.3): < 25%
- Ratio Reversibility (pH 7.3/8.6, cc 100 mM): 0.999
- Ratio Tau Offset (pH 7.3/8.6, cc 100 mM): 0.920
- Ratio Tau Onset (pH 7.3/8.6, cc 100 mM): 0.857
- log Ratio App Aff (pH 7.3/8.6, cc 100 mM): 0.492
- τoffset (pH 7.3): 9.20 s
- τonset (pH 7.3): 7.20 s
- τoffset (pH 8.6): 10.00 s
- τonset (pH 8.6): 8.40 s
- effect of acidic pH on recovery (pH = 6.0 vs 7.3, in words): decreased recovery
- Reversibility (pH=6.0, cc 100 mM): 0.18
- Reversibility (pH=7.3, cc 100 mM): 0.73
- Reversibility (pH=8.6, cc 100 mM): 0.73
